The text below walks through data of patent US20230391841A1, “MACROCYCLIC PEPTIDES” (Herantis Pharma OYJ, priority 2019, published 2023).

Molecules are shown by their SMILES. Bridge positions count the residues as written; N and C are the ends. Peptide text beside a SMILES is read from it.

The nature of series [1]: In vitro metabolic stability in rat plasma. Type of series: in vitro ADME. To be noted: 1 μM, 37° C., up to 120 min. The method, then:
The linear and macrocyclic compounds 1-14 and 23-26 (SEQ ID NOs: 1-14 and 23-26) were incubated in concentration 1 μM with rat plasma (Sprague-Dawley, male; 400 μl) for different time points (0, 20, 40, 60 or 120 min) at 37° C. The incubation was terminated by acetonitrile. The collected samples were centrifuged for 20 min at 2272×g and analyzed. io Stock solutions were prepared using 50% DMSO, and the compounds were spiked 1/100 to incubation to have final DMSO content of 0.5%. The samples were analyzed by UHPLC/PDA with high resolution mass spectrometry (QE-Orbitrap-MS on DDI mode) to monitor disappearance of the compound. Enalapril 1 μM was used as a disappearance rate control. For analysis of compounds 9, 10, 13 and 14 stock solutions were prepared with PBS, and samples were analyzed by UHPLC-ToF mass spectrometry. The analytical method was optimized by using the parent compounds for optimum chromatographic properties (peak shape and retention) and mass spectrometric ionization. The ion chromatograms were extracted from the total ion chromatograms using calculated monoisotopic accurate masses with 5 mDa window. Disappearance was based on LC/MS peak areas, marking 0 min as 100%.
The first-order rate constants k (min-1) of the metabolism were obtained from the slope of time versus logarithm (% of remaining compound) plot using Excel software. The in vitro half-life (t1/2) of study compound is defined as: t1/2=In2/k. Calculated half-life is based on compound disappearance from rat plasma.

The next series concerns human hepatocytes. The series can be described thus: In vitro metabolic stability in human hepatocytes. To be noted: 1 μM, 37° C., up to 60 min. Type of series: in vitro ADME. The protocol: The linear or macrocyclic compounds 1-8, 11-14 and 23-26 (SEQ ID NOs: 1-8, 11-14 and 23-26) were incubated in concentration 1 μM with pooled cryopreserved human hepatocytes (mixed gender; 400 pl, 1.0 million viable cells/ml) for different time points (0, 20, 40 or 60 min) at 37° C. The cell density and viability were determined by trypan blue is exclusion method. The incubation was terminated by acetonitrile. The collected samples were centrifuged for 20 min at 2272×g and analyzed. The samples were analyzed by UPLC/PDA with high resolution mass spectrometry (QE-Orbitrap-MS on DDI mode) to monitor disappearance of the compound. Verapramil 1 μM was used as a disappearance rate control. The analytical method was optimized by using the parent compounds for optimum chromatographic properties (peak shape and retention) and mass spectrometric ionization. The Ion chromatograms were extracted from the total ion chromatograms using calculated monoisotopic accurate masses with 5 mDa window. Disappearance was based on LC/MS peak areas, marking 0 min as 100%. The first-order rate constants k (min-1) of the metabolism were obtained from the slope of time versus logarithm (% of remaining compound) plot using Excel software. The in vitro half-life (t1/2) of study compound is defined as: t1/2In2/k. Calculated half-life is based on compound disappearance in human liver hepatocytes.

In series [2] the test system is 3D in vitro model of blood-brain barrier. The series can be described thus: Permeation in a 3D in vitro model of blood-brain barrier. To be noted: 500 nM, 2 h. The format is in vitro ADME, human endothelial cells, rat astrocytes and cortical neurons. The method, then:
Due to the interest of developing CDNF- and MANF-derived peptides for treatment of CNS diseases with peripheral route of administration, and the fact that macrocyclization can improve cell-penetration and distribution properties of peptides, the ability of the compounds to pass the blood-brain barrier was tested in an established in vitro model of the blood-brain barrier. For this purpose, macrocyclic and linear compounds were incubated at 500 nM for 2 h in a two-compartment in vitro blood-brain barrier model (n=4) followed by sample collection is and LC-MS/MS analysis.
Primary culture of astrocytes. Rat astrocytes were prepared from a E15 embryos. Briefly, pregnant female rats (Wistar, Janvier Labs) of 15 days of gestation were deeply anesthetized in a (CO2 chamber) and then killed by cervical dislocation. Fetuses were collected and immediately placed in ice-cold L15 Leibovitz medium with a 2% penicillin (10,000 U/mL) and streptomycin (10 mg/mL) solution (PS) and 1% bovine serum albumin (BSA). Full brains were treated for 20 min at 37° C. with a trypsin- EDTA solution at a final concentration of 0.05% trypsin and 0.02% EDTA. Dissociated cells were cultured in DMEM 10% fetal calf serum. Purified astrocytes were used at passage 4 (P4).
Culture of human endothelial cells. A vial of HBMEC (Primary Human Brain Microvascular Endothelial Cells, ACBRI 376) was used at a specific passage 8 (P8).
Primary culture of cortical neurons. Rat cortical neurons were cultured as described by Callizot et al., 2013 with modification. Briefly, pregnant female rats (Wistar, Janvier Labs) of […] were deeply anesthetized in a CO2 chamber and then killed by cervical io dislocation. Fetuses were collected and immediately placed in ice-cold L15 Leibovitz medium with a 2% penicillin (10,000 U/mL) and streptomycin (10 mg/mL) solution (PS) and 1% bovine serum albumin (BSA). Cortices were treated for 20 min at 37° C. with a trypsin-EDTA solution at a final concentration of 0.05% trypsin and 0.02% EDTA. The dissociation was stopped by addition of Dulbecco's modified Eagle's medium (DMEM) with 4.5 g/L of glucose, containing is DNAse I grade II (final concentration 0.5 mg/m L) and 10% fetal calf serum (FCS). Cells were mechanically dissociated by three forced passages through the tip of a 10-m1 pipette. Cells were then centrifuged at 515×g for 10 min at 4° C. The pellet resuspended in a defined culture medium consisting of Neurobasal medium with a 2% solution of B27 supplement, 2 mmol/L of L-glutamine, 2% of PS solution, 10 ng/mL of brain-derived neurotrophic factor (BDNF). Viable cells were counted in a Neubauer cytometer, using the trypan blue exclusion test. The cortical neurons were seeded in the bottom of well pre-coated with poly-L-lysine at a density of 255,000 per well in 24-well plate with insert and cultured at 37° C. in an air (95%)-CO2 (5%) incubator. The culture medium was changed every other day.
Co-Culture of endothelial cells, astrocytes and primary cortical neurons. The procedure was performed as previously published (Xue et al., 2013 with modifications, Callizot et al., 2017). Briefly, on day 0, purified astrocytes (P4) were rapidly thawed in a water bath at 37° C. The cells were immediately put in DMEM containing 10% of FCS. Cell suspension was centrifuged at 515×g for 5 min at 4° C. and the pellets were suspended in DMEM F12 containing 10% of FCS. Cells were seeded in the outer side of the insert membrane (PET, 1 μm) at the density of 45,000 cells per insert and cultured at 37° C. in an air (95%)-CO2 (5%) incubator. Thirty-six (36) hours after the astrocytes seeding, HBMEC (P8) were rapidly thawed in a water bath at 37° C. and immediately put in DMEM containing 10% of FCS. Cell suspension was centrifuged at 515×g for 5 min at 4° C. and the pellets were suspended in EGM-2 bullet kit containing 5% of FCS, 1% of PS solution, 1.4 μM of Hydrocortisone, 5 μg/mL of acid ascorbic, 1% of lipid mixture, 10 mM of HEPES, 1 ng/mL of bFGF. […]

`CC[C@H](C)[C@@H]1NC(=O)[C@H](CCC(N)=O)NC(=O)[C@H](CCCCN)NC(=O)[C@H](CC(C)C)NC(=O)[C@H](CCC(=O)O)NC(=O)[C@H](C)NC(=O)[C@H](C(C)C)NC(=O)[C@H](CCCNC(=N)N)NC(=O)[C@H](CCSC)NC(=O)[C@H](CCCCN)NC(=O)[C@H](CCCNC(=N)N)NC(=O)[C@H](CC(C)C)NC(=O)[C@H](CC(=O)O)NC(=O)[C@H](C(C)C)NC(=O)[C@H](CCC(=O)O)NC(=O)[C@H](C)NC(=O)[C@@H]2CSSC[C@H](NC(=O)[C@H](CCC(=O)O)NC(=O)[C@H](CCC(=O)O)NC(=O)CNC(=O)[C@H](Cc3c[nH]c4ccccc34)NC(=O)[C@H](CO)NC(=O)[C@H](Cc3c[nH]cn3)NC(=O)[C@H](CC(C)C)NC1=O)C(=O)N[C@@H](CCCNC(=N)N)C(=O)N[C@@H](C)C(=O)N2` [Compound 2] (cyclo(ACAEVDLRKMRVAELKQILHSWGEECR); disulfide 2-26): the “stability in rat plasma as compared to linear counterpart” value in series [1] is given as “improved stability”. Besides, the “stability in human hepatocytes as compared to linear counterpart” value in the series with human hepatocytes is “significantly improved stability”. In addition, in series [2], the “ability to pass through the in vitro blood-brain barrier as compared to linear counterpart” value was “improved ability to pass”.
